Source: ChEMBL document CHEMBL5241112, “Insights into the recent progress in the medicinal chemistry of pyranopyrimidine analogs” (RSC Med Chem, 2022)
In brackets after ≈: the same amount, converted by molar mass. Values belong to the compound of their own block, whether it stands above or below them.

Tests used:
Staphylococcus aureus [1] = assay: Antimicrobial activity against Staphylococcus aureus assessed as diameter of inhibition zone at 1 mg/ml incubated for 48 hrs by agar disk diffusion method; type: functional; conditions: read-out: DIZ
Bacillus cereus [2] = assay: Antimicrobial activity against Bacillus cereus assessed as diameter of inhibition zone at 1 mg/ml incubated for 48 hrs by agar disk diffusion method; type: functional; conditions: read-out: DIZ
Escherichia coli [3] = assay: Antimicrobial activity against Escherichia coli assessed as diameter of inhibition zone at 1 mg/ml incubated for 48 hrs by agar disk diffusion method; type: functional; conditions: read-out: DIZ
Klebsiella pneumoniae [4] = assay: Antimicrobial activity against Klebsiella pneumoniae assessed as diameter of inhibition zone at 1 mg/ml incubated for 48 hrs by agar disk diffusion method; type: functional; conditions: read-out: DIZ
Pseudomonas aeruginosa [5] = assay: Antimicrobial activity against Pseudomonas aeruginosa assessed as diameter of inhibition zone at 1 mg/ml incubated for 48 hrs by agar disk diffusion method; type: functional; conditions: read-out: DIZ
Penicillium chrysogenum [6] = assay: Antifungal activity against Penicillium chrysogenum assessed as diameter of inhibition zone at 1 mg/ml incubated for 72 to 91 hrs by agar disk diffusion method; type: functional; conditions: time 72-91 hrs, read-out: DIZ
Staphylococcus aureus [7] = assay: Antibacterial activity against Staphylococcus aureus assessed as bacterial growth inhibition by broth microdilution method; type: functional
Escherichia coli [8] = assay: Antibacterial activity against Escherichia coli assessed as bacterial growth inhibition by broth microdilution method; type: functional
Klebsiella pneumoniae [9] = assay: Antibacterial activity against Klebsiella pneumoniae assessed as bacterial growth inhibition by broth microdilution method; type: functional
Pseudomonas aeruginosa [10] = assay: Antibacterial activity against Pseudomonas aeruginosa assessed as bacterial growth inhibition by broth microdilution method; type: functional
MCF7 [11] = assay: cells; type: functional, cell-based; conditions: Homo sapiens, MCF7, 96 h
HCT-116 = assay: Anticancer activity against human HCT-116 cells assessed as reduction in cell viability incubated for 96 hrs by MTT assay; type: functional, cell-based; conditions: HCT-116, 96 h
Aspergillus ochraceus = assay: Antifungal activity against Aspergillus ochraceus assessed as diameter of inhibition zone by disc diffusion method; type: functional
Penicillium chrysogenum [12] = assay: Antifungal activity against Penicillium chrysogenum assessed as diameter of inhibition zone by disc diffusion method; type: functional
[13] = Antioxidant activity assessed as H2O2 radical scavenging activity; type: functional
HeLa = assay: Anticancer activity against human HeLa cells assessed as reduction in cell viability incubated for 48 hrs by MTT assay; type: functional, cell-based
MCF7 [14] = assay: cells; conditions: Homo sapiens, MCF7, 48 h
Urease = Urease (Canavalia ensiformis, UniProt P07374); assay: Inhibition of jack bean urease by phenol red method
Aspergillus niger = assay: Antifungal activity against Aspergillus niger assessed as diameter of inhibition zone at 1 mg/ml incubated for 72 to 91 hrs by agar disk diffusion method; type: functional; conditions: time 72-91 hrs, read-out: DIZ
Bacillus cereus [15] = assay: Antimicrobial activity against Bacillus cereus ATCC14579 assessed as diameter of inhibition zone at 20 mg/ml incubated for 24 hrs by disk diffusion method; type: functional; conditions: read-out: DIZ
Staphylococcus aureus [16] = assay: Antimicrobial activity against Staphylococcus aureus NCTC7447 assessed as diameter of inhibition zone at 20 mg/ml incubated for 24 hrs by disk diffusion method; type: functional; conditions: read-out: DIZ
Klebsiella pneumoniae [17] = assay: Antimicrobial activity against Klebsiella pneumoniae UC57 assessed as diameter of inhibition zone at 20 mg/ml incubated for 24 hrs by disk diffusion method; type: functional; conditions: read-out: DIZ
Pseudomonas aeruginosa [18] = assay: Antimicrobial activity against Pseudomonas aeruginosa ATCC 27853 assessed as diameter of inhibition zone at 20 mg/ml incubated for 24 hrs by disk diffusion method; type: functional; conditions: read-out: DIZ
Escherichia coli [19] = assay: Antimicrobial activity against Escherichia coli ATCC 14169 assessed as diameter of inhibition zone at 20 mg/ml incubated for 24 hrs by disk diffusion method; type: functional; conditions: read-out: DIZ
Staphylococcus aureus [20] = assay: Antibacterial activity against Staphylococcus aureus assessed as diameter of inhibition zone; type: functional
Bacillus subtilis = assay: Antibacterial activity against Bacillus subtilis assessed as diameter of inhibition zone; type: functional
Escherichia coli [21] = assay: Antibacterial activity against Escherichia coli assessed as diameter of inhibition zone; type: functional
Salmonella typhimurium = assay: Antibacterial activity against Salmonella typhimurium assessed as diameter of inhibition zone; type: functional, Salmonella enterica subsp. enterica serovar Typhimurium
Capra hircus = organism: Capra hircus; assay: Inhibition of goat lens AR at 100 uM incubated for 10 mins in presence of NADPH by spectroscopic analysis
[22] = Antioxidant activity assessed as DPPH radical scavenging activity incubated for 20 mins by spectrophotometric analysis; type: functional; design: concentration or dose not given beside the values
[23] = Antioxidant activity assessed as hydroxyl radical scavenging activity incubated for 5 mins by spectrophotometric analysis; type: functional; design: concentration or dose not given beside the values
[24] = Antioxidant activity assessed as DPPH radical scavenging activity at 12 ug incubated for 30 mins by spectrophotometric analysis; type: functional; conditions: dose 12.0 µg
[25] = Antioxidant activity assessed as NO radical scavenging activity; type: functional
Staphylococcus aureus [26] = assay: Antibacterial activity against Staphylococcus aureus NCIM 2654 assessed as diameter of inhibition zone incubated for 24 hrs by agar well diffusion method; type: functional

Chain of Urease (P07374 whole entry, the tested form may be a part): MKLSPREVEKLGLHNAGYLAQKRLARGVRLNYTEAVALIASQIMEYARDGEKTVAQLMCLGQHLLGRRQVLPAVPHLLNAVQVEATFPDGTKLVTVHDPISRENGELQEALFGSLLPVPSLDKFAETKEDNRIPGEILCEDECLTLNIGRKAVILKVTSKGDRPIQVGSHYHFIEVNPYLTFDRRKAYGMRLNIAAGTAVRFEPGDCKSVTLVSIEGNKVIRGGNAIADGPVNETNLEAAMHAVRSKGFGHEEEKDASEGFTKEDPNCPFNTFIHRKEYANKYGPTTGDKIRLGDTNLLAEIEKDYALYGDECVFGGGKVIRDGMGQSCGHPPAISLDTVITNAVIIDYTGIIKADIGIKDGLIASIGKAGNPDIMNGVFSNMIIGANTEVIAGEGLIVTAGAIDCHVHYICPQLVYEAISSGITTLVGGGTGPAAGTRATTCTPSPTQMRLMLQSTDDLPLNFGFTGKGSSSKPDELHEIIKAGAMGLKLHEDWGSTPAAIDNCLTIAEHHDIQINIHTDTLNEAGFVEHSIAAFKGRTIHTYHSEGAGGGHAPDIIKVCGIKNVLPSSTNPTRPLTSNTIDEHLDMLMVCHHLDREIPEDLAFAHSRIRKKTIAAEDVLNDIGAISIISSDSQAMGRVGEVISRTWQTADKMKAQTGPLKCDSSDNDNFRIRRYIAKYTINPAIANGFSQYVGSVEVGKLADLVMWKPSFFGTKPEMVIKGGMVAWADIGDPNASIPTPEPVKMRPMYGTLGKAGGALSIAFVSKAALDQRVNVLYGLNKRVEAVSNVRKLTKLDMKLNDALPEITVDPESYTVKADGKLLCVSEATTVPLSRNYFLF

Structure (SMILES): COC(=O)C1=C(N)Oc2[nH]c(=S)[nH]c(=O)c2C1c1ccc(OC)cc1 (centres undefined)
- zone of inhibition at 1000 µg/mL (Staphylococcus aureus [1]): 16 mm
- zone of inhibition at 1000 µg/mL (Bacillus cereus [2]): 19 mm
- zone of inhibition at 1000 µg/mL (Escherichia coli [3]): 15 mm
- zone of inhibition at 1000 µg/mL (Klebsiella pneumoniae [4]): 18 mm
- zone of inhibition at 1000 µg/mL (Pseudomonas aeruginosa [5]): 16 mm
- zone of inhibition at 1000 µg/mL (Penicillium chrysogenum [6]): 12 mm

- MIC (Staphylococcus aureus [7]): 6.25 µg/mL (≈ 15.6 µM)
- MIC (Escherichia coli [8]): 6.25 µg/mL (≈ 15.6 µM)
- MIC (Klebsiella pneumoniae [9]): 6.25 µg/mL (≈ 15.6 µM)
- MIC (Pseudomonas aeruginosa [10]): 6.25 µg/mL (≈ 15.6 µM)
Structure (SMILES): CCO/C=N/C1=C(C#N)C(c2ccccc2Cl)c2c(n(C)c(=O)n(C)c2=O)O1 (centres undefined)

- IC50 (MCF7 [11]): 4.95 µM
- IC50 (HCT-116): 2.76 µM
Structure (SMILES): O=c1[nH]c2c(c(=O)[nH]1)C(c1cccs1)c1[nH]c(=S)[nH]c(=S)c1O2 (centres undefined)

Structure (SMILES): COC(=O)C1=C(N)Oc2[nH]c(=S)[nH]c(=O)c2C1c1ccc(Cl)cc1 (centres undefined)
- zone of inhibition at 1000 µg/mL (Bacillus cereus [2]): 10 mm
- zone of inhibition at 1000 µg/mL (Escherichia coli [3]): 7 mm
- zone of inhibition at 1000 µg/mL (Klebsiella pneumoniae [4]): 3 mm
- zone of inhibition at 1000 µg/mL (Pseudomonas aeruginosa [5]): 13 mm
- zone of inhibition at 1000 µg/mL (Penicillium chrysogenum [6]): 0 mm

- MIC (Staphylococcus aureus [7]): 6.25 µg/mL (≈ 15.8 µM)
- MIC (Escherichia coli [8]): 6.25 µg/mL (≈ 15.8 µM)
- MIC (Klebsiella pneumoniae [9]): 6.25 µg/mL (≈ 15.8 µM)
- MIC (Pseudomonas aeruginosa [10]): 6.25 µg/mL (≈ 15.8 µM)
Structure (SMILES): CCO/C=N/C1=C(C#N)C(c2ccccc2OC)c2c(n(C)c(=O)n(C)c2=O)O1 (centres undefined)

Structure (SMILES): COc1ccc(C2c3c(nc[nH]c3=O)Oc3ccc4cc(Br)ccc4c32)cc1 (centres undefined)
- diameter of the inhibition zone (DIZ) (Aspergillus ochraceus): 17 mm
- diameter of the inhibition zone (DIZ) (Penicillium chrysogenum [12]): 13 mm

- IC50 [13]: 53.54 µg/mL (≈ 182 µM)
Structure (SMILES): COc1ccc(C2C(C#N)=C(N)Oc3cc(O)ccc32)cc1 (centres undefined)

Structure (SMILES): Brc1ccc2c3c(ccc2c1)Oc1ncn2nc(-c4ccccc4)nc2c1C3
- diameter of the inhibition zone (DIZ) (Aspergillus ochraceus): 17 mm
- diameter of the inhibition zone (DIZ) (Penicillium chrysogenum [12]): 13 mm

- IC50 (HeLa): 46 µM
- IC50 (MCF7 [14]): 33 µM
Structure (SMILES): O=C1Nc2c(c(=O)oc3ccccc23)C(c2ccc(Cl)cc2)N1 (centres undefined)

Structure (SMILES): N#CC1=C(N)Oc2[nH]c(=O)[nH]c(=O)c2C1c1ccc(Cl)cc1Cl (centres undefined)
- IC50 (Urease): 19.5 µM

Structure (SMILES): Brc1ccc2c3c(ccc2c1)Oc1ncn2ncnc2c1C3
- diameter of the inhibition zone (DIZ) (Aspergillus ochraceus): 17 mm
- diameter of the inhibition zone (DIZ) (Penicillium chrysogenum [12]): 13 mm

- IC50 (HeLa): 38 µM
- IC50 (MCF7 [14]): 38 µM
Structure (SMILES): O=C1Nc2c(c(=O)oc3ccccc23)C(c2ccccc2O)N1 (centres undefined)

Structure (SMILES): COC(=O)C1=C(N)Oc2[nH]c(=S)[nH]c(=O)c2C1c1ccccc1 (centres undefined)
- zone of inhibition at 1000 µg/mL (Staphylococcus aureus [1]): 12 mm
- zone of inhibition at 1000 µg/mL (Bacillus cereus [2]): 18 mm
- zone of inhibition at 1000 µg/mL (Escherichia coli [3]): 17 mm
- zone of inhibition at 1000 µg/mL (Klebsiella pneumoniae [4]): 21 mm
- zone of inhibition at 1000 µg/mL (Pseudomonas aeruginosa [5]): 19 mm
- zone of inhibition at 1000 µg/mL (Aspergillus niger): 12 mm

Structure (SMILES): N#CC1=C(N)Oc2[nH]c(=O)[nH]c(=O)c2C1c1ccc(Br)cc1 (centres undefined)
- zone of inhibition at 20000 µg/mL (Bacillus cereus [15]): 4 mm
- zone of inhibition at 20000 µg/mL (Staphylococcus aureus [16]): 12 mm
- zone of inhibition at 20000 µg/mL (Klebsiella pneumoniae [17]): 3 mm
- zone of inhibition at 20000 µg/mL (Pseudomonas aeruginosa [18]): 4 mm
- zone of inhibition at 20000 µg/mL (Escherichia coli [19]): 6 mm
- diameter of the inhibition zone (DIZ) (Staphylococcus aureus [20]): 18 mm
- diameter of the inhibition zone (DIZ) (Bacillus subtilis): 14 mm
- diameter of the inhibition zone (DIZ) (Escherichia coli [21]): 12 mm
- diameter of the inhibition zone (DIZ) (Salmonella typhimurium): 16 mm
- IC50 (Urease): 51.3 µM

Structure (SMILES): O=c1[nH]c2c(c(=O)[nH]1)Oc1c(c(=O)oc3ccccc13)C2c1ccc(Cl)cc1 (centres undefined)
- inhibition (Capra hircus): 47%
- Activity [22]: 71.5%
- Activity [23]: 68.3%

Structure (SMILES): O=c1[nH]c2c(c(=O)[nH]1)Oc1c(c(=O)oc3ccccc13)C2c1ccccc1Cl (centres undefined)
- inhibition (Capra hircus): 46%
- Activity [22]: 72.4%
- Activity [23]: 67.2%

Structure (SMILES): COc1ccc(C2c3[nH]c(=O)[nH]c(=O)c3Oc3c2c(=O)oc2ccccc32)cc1 (centres undefined)
- inhibition (Capra hircus): 44%
- Activity [22]: 59.1%
- Activity [23]: 54.3%

Structure (SMILES): Cc1n[nH]c2c1C(c1cc([N+](=O)[O-])ccc1O)c1c([nH]c(=O)[nH]c1=O)O2 (centres undefined)
- Activity [24]: 89.1%

- IC50 [25]: 50.32 µg/mL (≈ 198 µM)
Structure (SMILES): N#CC1=C(N)Oc2cc(O)ccc2C1c1ccco1 (centres undefined)

Structure (SMILES): Cc1n[nH]c2c1C(c1cccc([N+](=O)[O-])c1)c1c([nH]c(=O)[nH]c1=O)O2 (centres undefined)
- diameter of the inhibition zone (DIZ) (Staphylococcus aureus [26]): 12 mm
- Activity [24]: 90.3%

- IC50 (HeLa): 90 µM
- IC50 (MCF7 [14]): 38 µM
Structure (SMILES): O=C1Nc2c(c(=O)oc3ccccc23)C(c2cccc(O)c2)N1 (centres undefined)

- IC50 (HeLa): 38 µM
- IC50 (MCF7 [14]): 38 µM
Structure (SMILES): COc1ccc(C2NC(=O)Nc3c2c(=O)oc2ccccc32)cc1OC (centres undefined)

Structure (SMILES): Cc1n[nH]c2c1C(c1ccccc1O)c1c([nH]c(=O)[nH]c1=O)O2 (centres undefined)
- diameter of the inhibition zone (DIZ) (Staphylococcus aureus [26]): 14 mm

- IC50 (MCF7 [11]): 4.48 µM
- IC50 (HCT-116): 2.76 µM
Structure (SMILES): Cc1nc(O)c2c(n1)Oc1[nH]c(=O)[nH]c(=O)c1C2c1cccs1 (centres undefined)

Structure (SMILES): N#CC1=C(N)Oc2[nH]c(=O)[nH]c(=O)c2C1c1cccc([N+](=O)[O-])c1 (centres undefined)
- zone of inhibition at 20000 µg/mL (Bacillus cereus [15]): 14 mm
- zone of inhibition at 20000 µg/mL (Staphylococcus aureus [16]): 7 mm
- zone of inhibition at 20000 µg/mL (Klebsiella pneumoniae [17]): 6 mm
- zone of inhibition at 20000 µg/mL (Pseudomonas aeruginosa [18]): 11 mm
- zone of inhibition at 20000 µg/mL (Escherichia coli [19]): 11 mm
- diameter of the inhibition zone (DIZ) (Staphylococcus aureus [20]): 14 mm
- diameter of the inhibition zone (DIZ) (Bacillus subtilis): 12 mm
- diameter of the inhibition zone (DIZ) (Escherichia coli [21]): 10 mm
- diameter of the inhibition zone (DIZ) (Salmonella typhimurium): 14 mm
- IC50 (Urease): 98.9 µM
